Source: patent US5478825A, “5-(substituted amino)-1,2,4-triazolo (1,5-A) pyrimidine derivatives” (Egis Gyogyszergyar, priority 1991, dated 1995)

Experiments:
[1] = system: gastric acid secretion; test: Gastric acid secretion test; assay type: in vivo, rat
Experimental: 8. […] Rats of both sexes (Wistar breed, weighing 180-240 g) were fastened for 48 hours. On the day of the test the pylorus of the animals was bound under ether narcosis. The test compounds were administered orally 3 hours before the operation. 4 hours after the operation the animals were anaesthetized and the stomach was removed, the content thereof was centrifuged and the amount of the free acid was determined by titration, in the presence of Topfer reagent. The inhibition in relation to the control is calculated in percentage.

[2] = system: hexobarbital narcosis; test: Narcosis potentiating activity (hexobarbital); assay type: in vivo, mice; details: for Narcosis potentiating effect: 100 mg/kg, orally, frequency of positive reaction, hexobarbital 40 mg/kg i.v.
Experimental: 6. Narcosis potentiating activity
Groups consisting of 6 mice each were orally treated with the compound to be examined. After one hour, hexobarbital [5-(1-cyclohexenyl)-1,5-dimethylbarbituric acid] was injected intravenously at a dosage of 40 mg/kg. The control group was treated only with hexobarbital to provoke sleep. The duration of sleep was recorded. If the duration of sleep of an animal exceeded that of the mean value of the control group by a factor of 2.5, it was considered as a positive reaction. The frequency of the positive reaction is expressed as the percentage of the value obtained for the control animals.

[3] = system: pentetrazole spasm; test: Spasmolytic activity on mice (pentetrazole spasm); assay type: in vivo; details: orally; for Inhibition of pentetrazole spasm: 100 mg/kg, pentetrazole 125 mg/kg i.p.
Experimental: 7. Spasmolytic activity on mice
The tests were carried out according to the modified method of Benzinger and Hane [Arch. Int. Pharmacodyn. 167, 245-249 (1959)]. Mice of both sexes (NMRI breed, body weight 20-25 g) were treated orally with the compounds to be tested. One hour after the administration pentetrazole (6,7,8,9-tetrahydro-5H-tetrazoloazepine) was given intraperitoneally in a dosis of 125 mg/kg. The tonic-extensoric spasms on the hind limbs were registered. As reference compound 3,5,5-trimethyl-oxazolidine-2,4-dione (trimetadione) was used.

[4] = system: motility of mice; test: Motility inhibiting activity; assay type: in vivo
Experimental: 5. Motility inhibiting activity
The tests were performed according to the method of Borsy et al. [Arch. Int. Pharmacodyn. 124, 1-2 (1960)]. Groups consisting of 3 mice each were treated orally with different doses of the compounds to be tested. Then the test animals were placed in a Dews equipment. In this equipment the number of interruptions of infrared beam within 30 minutes was counted. The inhibition is expressed as the percentage of the value obtained for the control animals.

## CN/C(=N/CCSCc1nc[nH]c1C)NC#N [Cimetidine, reference compound]
[1]; 200 mg/kg p.o.
  Inhibition (gastric acid secretion): 91%

## CCN(CC)c1c2c(nc3nc(SC)nn13)CCC2 [Example 1, 5-(Diethylamino)-2-(methylthio)-6,7-dihydro-8H-cyclopenta[d]-1,2,4-triazolo[1,5-a]pyrimidine]
[1]; 200 mg/kg p.o.
  Inhibition (gastric acid secretion): 75%

## OCCN(CCO)c1c2c(nc3nc(N4CCOCC4)nn13)CCC2 [Example 11, 5-[N-bis(2-Hydroxyethyl)]amino-2-morpholino-6,7-dihydro-8H-cyclopenta[d]-1,2,4-triazolo[1,5-a]pyrimidine]
[2]
  Narcosis potentiating effect: 67%

## C1Cc2nc3nc(N4CCOCC4)nn3c(N3CCOCC3)c2C1 [Example 15, 2,5-Dimorpholino-6,7-dihydro-8H-cyclopenta[d]-1,2,4-triazolo[1,5-a]pyrimidine]
[3]
  Inhibition of pentetrazole spasm: -50%
[4]; 100 mg/kg, orally
  Change in motility vs control: -65%

## CSc1nc2nc3c(c(NCCN4CCOCC4)n2n1)CCCC3 [Example 18, 2-(Methylthio)-5-[N-(2-morpholinoethyl)]amino-6,7,8,9-tetrahydro-1,2,4-triazolo[5,1-b]quinazoline]
[3]
  Inhibition of pentetrazole spasm: -56%

## Cc1cc(N(CCO)Cc2ccccc2)n2nc(N3CCOCC3)nc2n1 [Example 24, 5-[N-Benzyl-N-(2-hydroxyethyl)]amino-7-methyl-2-morpholino-1,2,4-triazolo[1,5-a]pyrimidine]
[2]
  Narcosis potentiating effect: 67%

## CCCC(C)(COC(N)=O)COC(N)=O [Meprobamate, reference compound]
[2]; Mus musculus, po, read-out: ED50 (narcosis potentiating effect)
  ED50: 260 mg/kg
[2]; dose of 100 mg/kg
  narcosis potentiating effect (in words): inactive
[4]; Mus musculus, po, read-out: ED50 (motility inhibition)
  ED50: 232 mg/kg
[4]; dose of 100 mg/kg
  motility inhibition (in words): inactive

## CN1C(=O)OC(C)(C)C1=O [Trimetadione, 3,5,5-trimethyl-oxazolidine-2,4-dione, reference compound]
[3]; Mus musculus, po, read-out: ED50 (inhibition of pentetrazole spasm)
  ED50: 400 mg/kg

## COc1cc(C(=S)N2CCOCC2)cc(OC)c1OC [Trithiozine, reference compound]
[1]; 400 mg/kg p.o.
  Inhibition (gastric acid secretion): 63%
